Paper PMC9928118, “Funneling modulatory peptide design with generative models: Discovery and characterization of disruptors of calcineurin protein-protein interactions” (PLOS Computational Biology, 2023)

Tested on: GST-tagged Cn
Experiment: PEPperPRINT peptide microarray binding assay with GST-tagged Cn
Procedure, shortened: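 Qualitative binding: peptides printed on a PEPperPRINT microarray were incubated overnight at 4 °C with 1 mg/ml GST-tagged Cn, then detected with Alexa-Fluor 647 anti-GST antibody. Log fluorescence was baseline-corrected, averaged over duplicate spots, Z-normalized and averaged across five repeats.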

[1] = GST-tagged Cn, max over the spots on the chip (two locations)
[2] = GST-tagged Cn, mean over the spots on the chip (two locations)
[3] = GST-tagged Cn, max over the chip locations
[4] = GST-tagged Cn, mean over the chip locations
[5] = max over the spots listed under Location on chip
[6] = mean over the spots listed under Location on chip
[7] = max over the chip locations listed for the peptide (two spots)
[8] = mean over the chip locations listed for the peptide (two spots)
[9] = GST-tagged Cn, max over the chip spots listed under Location on chip
[10] = GST-tagged Cn, mean over the chip spots listed under Location on chip
[11] = GST-tagged Cn, max over the spots named in Location on chip
[12] = GST-tagged Cn, mean over the spots named in Location on chip

RSPGTFPLELSGHKKQ [SeqRBMlowT_6356]
Chip Fluorescence (max) [1]: 1.326 | Chip Fluorescence (mean) [2]: -0.7748

SHKASPPTLNESPVTH [SeqRBM_2083]
Chip Fluorescence (max) [3]: -0.06558 | Chip Fluorescence (mean) [4]: -1.173

TFWMNPQFRITLDDPD [SeqRBMlowT_69]
Chip Fluorescence (max) [5]: 3.266 | Chip Fluorescence (mean) [6]: 0.639

PSLFPDALGLGQFSLS [SeqCRZ1_Aureobasidium_pullulans]
Chip Fluorescence (max) [1]: 1.272 | Chip Fluorescence (mean) [2]: 0.42

LDEAIPEIVISPPETP [SeqRBMlowT_4410]
Chip Fluorescence (max) [7]: 9.285 | Chip Fluorescence (mean) [8]: 1.035

KKMSPPCIDVHPLDSA [SeqRBM_2282]
Chip Fluorescence (max) [5]: 2.64 | Chip Fluorescence (mean) [6]: 0.293

RTPGTFLLTLRGHKKQ [SeqRBMlowT_7783]
Chip Fluorescence (max) [5]: 2.997 | Chip Fluorescence (mean) [6]: 0.7866

TFWANPQYKIHLEEED [SeqRBMlowT_4653]
Chip Fluorescence (max) [7]: 4.098 | Chip Fluorescence (mean) [8]: 0.694

ADEASPRIVITPPELP [SeqRBMlowT_1222]
Chip Fluorescence (max) [7]: 3.902 | Chip Fluorescence (mean) [8]: 0.5727

TFWTNPQYRITLEEED [SeqRBMlowT_1109]
Chip Fluorescence (max) [5]: 3.384 | Chip Fluorescence (mean) [6]: 0.265

TFWMNPQFKISLEDPD [SeqRBMlowT_4243]
Chip Fluorescence (max) [7]: 3.47 | Chip Fluorescence (mean) [8]: 1.839

PAGAGVGIVITVTEAE [SeqRBMlowT_166]
Chip Fluorescence (max) [5]: 3.117 | Chip Fluorescence (mean) [6]: 1.082

TFWTNPQFKVTLEEPD [SeqRBMlowT_2957]
Chip Fluorescence (max) [1]: 1.208 | Chip Fluorescence (mean) [2]: -0.4648

SSRIQSKIVVNEPKQI [SeqRBM_7418]
Chip Fluorescence (max) [3]: -0.3136 | Chip Fluorescence (mean) [4]: -1.152

ERWSIGFGDMFCNQFK [Seqrandom_9989]
Chip Fluorescence (max) [5]: 2.7221 | Chip Fluorescence (mean) [6]: 0.53

LEAAPPDPDRKPPNII [Seqshuffled_9311]
Chip Fluorescence (max) [1]: 1.299 | Chip Fluorescence (mean) [2]: -0.4919

RAYINPFMQFQIGGNH [SeqRBMlowT_4074]
Chip Fluorescence (max) [5]: 2.865 | Chip Fluorescence (mean) [6]: 0.3097

YPPGTPTKQGQQMAPS [SeqRTS1_Aspergillus_carbonarius]
Chip Fluorescence (max) [3]: -0.3471 | Chip Fluorescence (mean) [4]: -1.955

KKMAPPCISVHPPEED [SeqRBMlowT_5025]
Chip Fluorescence (max) [9]: 0.441 | Chip Fluorescence (mean) [10]: -1.335

GSPPTPSRSGKPPKPL [SeqRBM_2495]
Chip Fluorescence (max) [5]: 3.396 | Chip Fluorescence (mean) [6]: 0.6955

SNSTNPEITITPAELC [SeqRIPOR2_Tarsius_syrichta]
Chip Fluorescence (max) [7]: 7.538 | Chip Fluorescence (mean) [8]: 1.227

GTDTTPSVVVHVCEDD [SeqRBMlowT_1211]
Chip Fluorescence (max) [9]: 0.8657 | Chip Fluorescence (mean) [10]: -0.2753

PSEDQPGIVVHVCEEG [SeqRBMlowT_361]
Chip Fluorescence (max) [7]: 3.843 | Chip Fluorescence (mean) [8]: 0.9779

LNLKIPEVRLNIISAL [SeqRBMlowT_1835]
Chip Fluorescence (max) [3]: 0.09786 | Chip Fluorescence (mean) [4]: -0.5761

TFWSNPQFKITLDEPD [SeqRBMlowT_5518]
Chip Fluorescence (max) [11]: 1.348 | Chip Fluorescence (mean) [12]: -0.7061

TGTLCKSGMLVSTRMS [SeqRBM_1323]
Chip Fluorescence (max) [9]: 0.8817 | Chip Fluorescence (mean) [10]: -0.07521

NGPGTPTRQGQPLAPS [SeqRBMlowT_7792]
Chip Fluorescence (max) [9]: 0.749 | Chip Fluorescence (mean) [10]: -1.0469

TFWDNPQYQIKLNDPD [SeqRBM_8698]
Chip Fluorescence (max) [11]: 1.7877 | Chip Fluorescence (mean) [12]: -0.1207

GTETTPSIVVHVCEDD [SeqRBMlowT_128]
Chip Fluorescence (max) [7]: 4.964 | Chip Fluorescence (mean) [8]: 1.374

ADEANPEITITPAELP [SeqRBMlowT_369]
Chip Fluorescence (max) [11]: 1.463 | Chip Fluorescence (mean) [12]: 0.5736

TFWTNPQFKVKLEEVD [SeqRBMlowT_284]
Chip Fluorescence (max) [1]: 1.062 | Chip Fluorescence (mean) [2]: -0.1705

RAYMNPFMTFIDGGHR [SeqRBMlowT_1518]
Chip Fluorescence (max) [11]: 1.378 | Chip Fluorescence (mean) [12]: 0.8819

TFWTNPQYRITLEELD [SeqRBMlowT_2291]
Chip Fluorescence (max) [7]: 5.53 | Chip Fluorescence (mean) [8]: 0.9297

TFWSNPQFKIKLEDPD [SeqRBMlowT_7428]
Chip Fluorescence (max) [11]: 1.373 | Chip Fluorescence (mean) [12]: 0.3282

TFWTNPQYTITLEEVD [SeqRBMlowT_678]
Chip Fluorescence (max) [5]: 2.849 | Chip Fluorescence (mean) [6]: 0.5944

TFWTNPQFKITLEEPD [SeqRBMlowT_951]
Chip Fluorescence (max) [5]: 2.6 | Chip Fluorescence (mean) [6]: 0.9758

TFWTNPQYRITVTDED [SeqRBMlowT_7478]
Chip Fluorescence (max) [9]: 0.9083 | Chip Fluorescence (mean) [10]: -0.5067

KAYMCPAVSFQDGGRR [SeqRBMlowT_4017]
Chip Fluorescence (max) [11]: 1.6 | Chip Fluorescence (mean) [12]: -0.3289

PMMAVPSISSDVSNAP [SeqRBM_5566]
Chip Fluorescence (max) [11]: 1.398 | Chip Fluorescence (mean) [12]: 0.7603

ATSEQPTFDLSSAMPT [SeqRBM_6206]
Chip Fluorescence (max) [3]: -1.8391 | Chip Fluorescence (mean) [4]: -2.255

GLLNVYKKTRITYDNL [Seqrandom_1974]
Chip Fluorescence (max) [9]: 0.9025 | Chip Fluorescence (mean) [10]: -0.2688

RQPGQALLTLRGHSAS [SeqRBMlowT_5869]
Chip Fluorescence (max) [9]: 0.727 | Chip Fluorescence (mean) [10]: -0.3106

RAYINPFMQFIDGGRK [SeqRBMlowT_4070]
Chip Fluorescence (max) [7]: 3.668 | Chip Fluorescence (mean) [8]: 2.003

RQPGQALLTLRGHSKS [SeqRBMlowT_7741]
Chip Fluorescence (max) [5]: 2.813 | Chip Fluorescence (mean) [6]: 0.6175

SHMAPPAINIDFAPSN [SeqCRZ1_Metarhizium_rileyi]
Chip Fluorescence (max) [3]: 0.3108 | Chip Fluorescence (mean) [4]: -0.9278

RCISAYKLDSVMMDPS [Seqrandom_9957]
Chip Fluorescence (max) [7]: 3.463 | Chip Fluorescence (mean) [8]: 0.1448

PSDDQPGIIVHPAEED [SeqRBMlowT_1217]
Chip Fluorescence (max) [5]: 2.878 | Chip Fluorescence (mean) [6]: -0.2496

PLGTQPGIVVHVCELN [SeqRBMlowT_356]
Chip Fluorescence (max) [7]: 4.334 | Chip Fluorescence (mean) [8]: 3.231
